Assay results taken from patent US20240228489A1, “POSITIVE ALLOSTERIC MODULATORS OF THE MUSCARINIC ACETYLCHOLINE RECEPTOR M1” (Vanderbilt University, priority 2021, published 2024).

Tests used:
human mAChR M1 [1] = target: T1, human mAChR M1 (Homo sapiens, UniProt P11229); experiment: mAChR M1 cell-based functional assay (calcium mobilization), agonist mode: compound alone, Emax relative to acetylcholine maximum; conditions: for EC50 / Agonist Activity Human M1 EC50: human mAChR M1; for Emax: relative to the maximum for acetylcholine
T1 sequence (P11229 1-460): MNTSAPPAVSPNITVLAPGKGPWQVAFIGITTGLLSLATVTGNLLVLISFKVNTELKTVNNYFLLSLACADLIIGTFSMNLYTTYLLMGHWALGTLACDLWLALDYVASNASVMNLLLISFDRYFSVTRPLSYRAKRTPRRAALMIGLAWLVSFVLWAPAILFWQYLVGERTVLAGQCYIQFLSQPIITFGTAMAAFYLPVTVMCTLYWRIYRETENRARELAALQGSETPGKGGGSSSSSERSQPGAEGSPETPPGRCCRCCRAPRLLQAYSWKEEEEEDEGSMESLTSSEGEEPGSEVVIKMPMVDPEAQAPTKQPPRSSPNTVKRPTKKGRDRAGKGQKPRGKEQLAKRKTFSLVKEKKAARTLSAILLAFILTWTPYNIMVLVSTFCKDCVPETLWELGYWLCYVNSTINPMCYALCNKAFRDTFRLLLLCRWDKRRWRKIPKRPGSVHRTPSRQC
How it was run: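 CHO-K1 cells stably expressing hM1 were loaded with Fluo-4 AM, and calcium flux was read as fluorescence ratio. Compound was added alone from an 11-point 1:3 curve, and the agonist response was fitted with a four-parameter logistic. Emax is expressed relative to the acetylcholine maximum.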

human mAChR M1 [2] = target: T1, human mAChR M1; experiment: mAChR M1 cell-based functional assay (calcium mobilization), PAM mode: increase in the EC20 acetylcholine response
How it was run: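 CHO-K1 cells stably expressing hM1, Fluo-4 loaded, read by FDSS calcium flux at 1 Hz. Compound (11-point 1:3 CRC) added at 4 s, EC20 acetylcholine at 144 s, EC80 at 230 s. PAM activity taken as concentration-dependent increase in EC20 ACh response, fitted by four-parameter logistic for EC50/Emax.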

EC50 (human mAChR M1 [1])	Emax (human mAChR M1 [1])	EC50 (human mAChR M1 [2])	Emax (human mAChR M1 [2])	Agonist Activity Human M1 EC50 (human mAChR M1 [1])	Structure (SMILES)
5.87 µM	41%	0.188 µM	75%	–	[2H]C1([2H])c2ncccc2C(=O)N1Cc1c(F)cc(-c2ccc(OCCOC)c3nn(C)cc23)cc1F [Compound 113, 6-(2,6-difluoro-4-(7-(2-methoxyethoxy)-2-methyl-2H-indazol-4-yl)benzyl)-6,7-dihydro-5H-pyrrolo[3,4-b]pyridin-5-one-7,7-d2]
–	5%	0.318 µM	82%	Inactive	[2H]C1([2H])c2ncccc2C(=O)N1Cc1c(F)cc(-c2cccc3nn(C)cc23)cc1Cl [Compound 166, 6-(2-chloro-6-fluoro-4-(2-methyl-2H-indazol-4-yl)benzyl)-6,7-dihydro-5H-pyrrolo[3,4-b]pyridin-5-one-7,7-d2]
–	5%	0.476 µM	84%	Inactive	[2H]C1([2H])c2ncccc2C(=O)N1Cc1c(F)cc(-c2ccc(F)c3nn(C)cc23)cc1F [Compound 36, 6-(2,6-difluoro-4-(7-fluoro-2-methyl-2H-indazol-4-yl)benzyl)-6,7-dihydro-5H-pyrrolo[3,4-b]pyridin-5-one-7,7-d2]
3.54 µM	19%	0.139 µM	76%	–	[2H]C([2H])([2H])Oc1ccc(-c2cc(F)c(CN3C(=O)c4cccnc4C3([2H])[2H])c(F)c2)c2cn(C([2H])([2H])[2H])nc12 [Compound 94, 6-(2,6-difluoro-4-(7-(methoxy-d3)-2-(methyl-d3)-2H-indazol-4-yl)benzyl)-6,7-dihydro-5H-pyrrolo[3,4-b]pyridin-5-one-7,7-d2]
≥ 10 µM	21%	0.317 µM	70%	–	[2H]C1([2H])c2ncccc2C(=O)N1Cc1ccc(-c2ccc(OCCOC)c3nn(C([2H])([2H])[2H])cc23)cc1F [Compound 117, 6-(2-fluoro-4-(7-(2-methoxyethoxy)-2-(methyl-d3)-2H-indazol-4-yl)benzyl)-6,7-dihydro-5H-pyrrolo[3,4-b]pyridin-5-one-7,7-d2]
–	9%	0.277 µM	79%	Inactive	[2H]C1([2H])c2ncccc2C(=O)N1Cc1ccc(-c2ccc(OCC3(C#N)CC3)c3nn(C)cc23)cc1F [Compound 178, 1-(((4-(3-fluoro-4-((5-oxo-5,7-dihydro-6H-pyrrolo[3,4-b]pyridin-6-yl-7,7-d2)methyl)phenyl)-2-methyl-2H-indazol-7-yl)oxy)methyl)cyclopropane-1-carbonitrile]
–	2%	0.076 µM	63%	Inactive	[2H]C([2H])([2H])Oc1cnc2c(c1)C(=O)N(Cc1c(F)cc(-c3ccc4nn(C)cc4c3)cc1F)C2([2H])[2H] [Compound 112, 6-(2,6-difluoro-4-(2-methyl-2H-indazol-5-yl)benzyl)-3-(methoxy-d3)-6,7-dihydro-5H-pyrrolo[3,4-b]pyridin-5-one-7,7-d2]
–	8%	0.472 µM	86%	Inactive	[2H]C1([2H])c2ncccc2C(=O)N1Cc1c(Cl)cc(-c2cccc3nn(C([2H])([2H])[2H])cc23)cc1C1CC1 [Compound 220, 6-(2-chloro-6-cyclopropyl-4-(2-(methyl-d3)-2H-indazol-4-yl)benzyl)-6,7-dihydro-5H-pyrrolo[3,4-b]pyridin-5-one-7,7-d2]
> 10 µM	2%	1.3 µM	73%	–	[2H]C1([2H])c2ncccc2C(=O)N1Cc1c(F)cc(-c2cccc3c2cnn3CC)cc1F [Compound 65, 6-(4-(1-ethyl-1H-indazol-4-yl)-2,6-difluorobenzyl)-6,7-dihydro-5H-pyrrolo[3,4-b]pyridin-5-one-7,7-d2]
1.2 µM	59%	0.14 µM	88%	–	[2H]C1([2H])c2ncccc2C(=O)N1Cc1c(F)cc(-c2ccnc3nn(C)cc23)cc1C1CC1 [Compound 208, 6-(2-cyclopropyl-6-fluoro-4-(2-methyl-2H-pyrazolo[3,4-b]pyridin-4-yl)benzyl)-6,7-dihydro-5H-pyrrolo[3,4-b]pyridin-5-one-7,7-d2]
≥ 10 µM	16%	0.527 µM	66%	–	[2H]C1([2H])c2ncccc2C(=O)N1Cc1ccc(-c2cnc3nn(C([2H])([2H])[2H])cc3c2)cc1F [Compound 118, 6-(2-fluoro-4-(2-(methyl-d3)-2H-pyrazolo[3,4-b]pyridin-5-yl)benzyl)-6,7-dihydro-5H-pyrrolo[3,4-b]pyridin-5-one-7,7-d2]
–	3%	7.58 µM	58%	Inactive	[2H]C1([2H])c2ncccc2C(=O)N1Cc1ccc(-c2cc3cn(C)nc3cc2C)cc1F [Compound 26, 6-(4-(2,6-dimethyl-2H-indazol-5-yl)-2-fluorobenzyl)-6,7-dihydro-5H-pyrrolo[3,4-b]pyridin-5-one-7,7-d2]
≥ 10 µM	16%	1.07 µM	73%	–	[2H]C1([2H])c2ncccc2C(=O)N1Cc1ccc(-c2ccc(OCC3CCO3)c3nn(C)cc23)cc1F (stereo not shown) [Compound 145, 6-(2-fluoro-4-(2-methyl-7-(oxetan-2-ylmethoxy)-2H-indazol-4-yl)benzyl)-6,7-dihydro-5H-pyrrolo[3,4-b]pyridin-5-one-7,7-d2]
–	2%	6.8 µM	77%	Inactive	[2H]C1([2H])c2ncccc2C(=O)N1Cc1ccc(-c2ccc3cn(C)nc3c2)cc1 [Compound 14, 6-(4-(2-methyl-2H-indazol-6-yl)benzyl)-6,7-dihydro-5H-pyrrolo[3,4-b]pyridin-5-one-7,7-d2]
8.25 µM	34%	2.48 µM	82%	–	[2H]C1([2H])c2ncccc2C(=O)N1Cc1c(C)cc(-c2cccc3nn(C)cc23)cc1F (single isomer, unassigned) [Compound 155, 6-(2-Fluoro-6-methyl-4-(2-methyl-2H-indazol-4-yl)benzyl)-6,7-dihydro-5H-pyrrolo[3,4-b]pyridin-5-one-7,7-d2]
–	3%	3.97 µM	75%	Inactive	[2H]C1([2H])c2ncccc2C(=O)N1Cc1ccc(-c2ccc3cn(C)nc3c2)cc1F [Compound 20, 6-(2-fluoro-4-(2-methyl-2H-indazol-6-yl)benzyl)-6,7-dihydro-5H-pyrrolo[3,4-b]pyridin-5-one-7,7-d2]
–	6%	0.1 µM	77%	Inactive	[2H]C([2H])([2H])Oc1cnc2c(c1)C(=O)N(Cc1c(F)cc(-c3cccc4nn(C([2H])([2H])[2H])cc34)cc1F)C2([2H])[2H] [Compound 78, 6-(2,6-difluoro-4-(2-(methyl-d3)-2H-indazol-4-yl)benzyl)-3-(methoxy-d3)-6,7-dihydro-5H-pyrrolo[3,4-b]pyridin-5-one-7,7-d2]
> 10 µM	8%	0.173 µM	89%	–	[2H]C1([2H])c2ncccc2C(=O)N1Cc1c(F)cc(-c2ccc(OC)c3nn(C([2H])([2H])[2H])cc23)cc1F [Compound 51, 6-(2,6-difluoro-4-(7-methoxy-2-(methyl-d3)-2H-indazol-4-yl)benzyl)-6,7-dihydro-5H-pyrrolo[3,4-b]pyridin-5-one-7,7-d2]
–	9%	0.475 µM	82%	Inactive	[2H]C1([2H])c2ncccc2C(=O)N1Cc1c(F)cc(-c2ccc(SC)c3nn(C)cc23)cc1F [Compound 181, 6-(2,6-difluoro-4-(2-methyl-7-(methylthio)-2H-indazol-4-yl)benzyl)-6,7-dihydro-5H-pyrrolo[3,4-b]pyridin-5-one-7,7-d2]
8.2 µM	54%	0.288 µM	72%	–	[2H]C1([2H])c2ncccc2C(=O)N1Cc1c(F)cc(-c2ccc(OC3CCOCC3)c3nn(C)cc23)cc1F [Compound 140, 6-(2,6-difluoro-4-(2-methyl-7-((tetrahydro-2H-pyran-4-yl)oxy)-2H-indazol-4-yl)benzyl)-6,7-dihydro-5H-pyrrolo[3,4-b]pyridin-5-one-7,7-d2]
–	8%	1.36 µM	68%	Inactive	[2H]C1([2H])c2ncc(Br)cc2C(=O)N1Cc1c(F)cc(-c2cccc3nn(C)cc23)cc1F [Compound 61, 3-Bromo-6-(2,6-difluoro-4-(2-methyl-2H-indazol-4-yl)benzyl)-6,7-dihydro-5H-pyrrolo[3,4-b]pyridin-5-one-7,7-d2]
≥ 10 µM	13%	0.396 µM	83%	–	[2H]C1([2H])c2ncccc2C(=O)N1Cc1c(C)cc(-c2ccc3nn(C([2H])([2H])[2H])cc3c2)cc1F [Compound 160, 6-(2-fluoro-6-methyl-4-(2-(methyl-d3)-2H-indazol-5-yl)benzyl)-6,7-dihydro-5H-pyrrolo[3,4-b]pyridin-5-one-7,7-d2]
